Assay results reported in publication PMC10549826 (Antiviral research, 2023).

Target: A/Victoria/361/2011 NA, wild-type sequence Q136, T148, R150, T439 (recombinant PR8-based A(H3N2) virus) (Influenza A virus, UniProt G9LQ08)
Type: biochemical

CCC(CC)[C@H](NC(C)=O)[C@@H]1[C@H](O)[C@@H](C(=O)O)C[C@H]1N=C(N)N [Peramivir, peramivir]
IC50: 70 ± 10 pM
